# Data reported in patent EP0319986B1, “Anti-plasmin depressant” (NIPPON SHINYAKU COMPANY, LIMITED, priority 1987, dated 1989).
# Counter-ions that a name gives are not always drawn.
# Tested on: α2-plasmin inhibitor (α2-PI)
# Experiment: α2-PI activity in culture medium of HepG2 cells (plasmin / S-2251 chromogenic substrate)
# Format: cell-based, human
# Details: 200 µg/ml of compound, serum-free medium, 3 to 4 days, culture without test compound = 100%, n=3
# Experimental: It is known that human hepatic cancer-derived HepG2 cells synthesize and secrete α2-plasmin inhibitor (α2-PI). The HepG2 cells, 2 x 10^6, were inoculated on a plastic culture plate (diameter of 100 mm) made by Falcon Inc. and cultured in Eagle's minimum medium containing 10% bovine fetal serum.
# Three days after, cells adhered to the bottom of the plate were washed twice with Dulbecco's phosphate buffer followed by culturing in 8 ml of serum-free Eagle's medium (containing no Phenol Red) containing 200 µg/ml of a specimen of the compound of the present invention for further 3 to 4 days. […]
# To 100 µl of the concentrated sample, 50 µl of 15 mCU plasmin solution was added and further 50 µl of 0.25 µmole S-2251 synthetic chromogenic substrate solution was added thereto followed by reacting at 37°C for 10 minutes. By adding 1 ml of 2% citrate solution, the reaction was stopped. p-Nitroanilide released from the S-2251 substrate was measured at O.D. of 405 nm.
# A sample in which decomposition of the S-2251 substrate was measured using the aforesaid Tris buffer instead of the concentrated sample was made a control showing 100% plasmin activity and the concentrated sample cultured without adding a test compound was made a control showing 100% α2-PI activity. […]
row,Compound,α2-PI activity (%)
1,N-Isoprenylmoranoline [Compound No. 9],55%
2,Nojirimycin bisulfite [Compound No. 6],67%

# Tested on: CPAE (calf pulmonary artery endothelia)
# Experiment: Thrombolytic test in vitro: CPAE culture supernatant on fibrin plate, lysis circle
# Format: cell-based
# Details: 5 µl of 0.2 mg/ml compound solution per well of CPAE cells, 72 hours; 5 µl supernatant on fibrin plate with plasminogen, 4 hours; 4 mm or more = thrombolytic ability induced
# Experimental: Thrombolytic activity-inducing ability in the established vascular endothelial cell culture system was examined using CPAE (calf pulmonary artery endothelia).
# […] cells were purchased from Dainippon Pharmaceutical Co., Ltd., Department of Laboratory Products. CPAE cells were subcultured in 10% FCS-Eagle MEM medium charged in a culture flask of 25 cm^2. From the cell suspension fractionated upon subculture, 0.1 ml was transferred into a test tube with a sterilized pipette. Then, the cell suspension was diluted to 10 fold with 0.9 ml of Trypan Blue solution and a cell count was counted with a cell counter. After diluting with 10% FCS-Eagle MEM medium so as to have a cell count of 2 x 10^5 cells/ml, 100 µl each/well, namely, 2 x 10^4 cells/well, of the dilution was dispensed in a 96 well microtiter plate (manufactured by Corning) with a micropipette. The plate was incubated at 37°C in 5% CO2.
# The compound used according to the present invention was dissolved in medium in 0.2 mg/ml; the compound that was insoluble in the medium was dissolved in less than 1% of DMSO and the resulting solution was aseptically filtered through a filter; 5 µl of the solution was added to the well with a sterilized micropipette 24 hours after onset of the incubation. After culturing at 37°C for 72 hours in 5% CO2, the collected culture supernatant was provided for measurement.
# The measurement was performed as follows. Plasminogen, 5 µl, was charged in a well of fibrin plate (manufactured by Kitazato institute), which was allowed to stand until diffusion was completed. After diffusion, 5 µl of the supernatant was charged and then put in a carbon dioxide gas incubator of 37°C. Four hours after, evaluation was made by formation of a transparent lysis circle by fibrinolysis.
# In the case of forming a circle of 4 mm or more due to fibrinolysis, it was judged that thrombolytic ability of CPAE cells was induced.
# After the fibrinolytic activity was checked over, the well was fixed with 2.5% of glutaraldehyde in a final concentration. Then, the solution was discarded and the system was washed with PBS. After washing, moisture was removed. After staining with 100 µl of 0.1% crystal violet and allowing stand for 2 to 3 minutes, the system was washed with running water. After an excess of the staining solution was washed out, moisture was removed and the dye bound to the cells was eluted by 100 µl of methanol. Using multiscanning (Titertech), measurements were performed at a wavelength of 580 nm in accordance with the ABS method and the matrix method to confirm that the cells were not injured.
row,Compound,Diameter (mm) of the circle due to fibrinolysis
1,"CCCCN1C[C@H](O)[C@@H](O)[C@H](O)[C@H]1CO [Compound No. 2a, N-(n-Butyl)moranoline]",7.5 mm
2,"CCCCCCN1C[C@H](O)[C@@H](O)[C@H](O)[C@H]1CO [Compound No. 8, N-Hexylmoranoline tosylate]",6.3 mm
3,"CCCCCCCCC(O)CN1C[C@H](O)[C@@H](O)[C@H](O)[C@H]1CO (stereo partly shown) [Compound No. 10, N-(2-Hydroxydecyl)moranoline tosylate]",4.5 mm
4,"OC[C@@H]1[C@@H](O)[C@H](O)[C@@H](O)CN1CCCc1ccccc1 [Compound No. 12, N-(3-Phenylpropyl)moranoline tosylate]",5.9 mm
5,"OC[C@@H]1[C@@H](O)[C@H](O)[C@@H](O)CN1CC=Cc1ccccc1 [Compound No. 14, N-Cinnamylmoranoline hydrochloride]",5.9 mm
6,"OC[C@@H]1[C@@H](O)[C@H](O)[C@@H](O)CN1CCCCc1ccccc1 [Compound No. 15, N-4-Phenylbutylmoranoline tosylate]",6.3 mm
7,"OC[C@@H]1[C@@H](O)[C@H](O)[C@@H](O)CN1CCCOc1ccccc1 [Compound No. 17, N-(3-Phenoxypropyl)moranoline tosylate]",7.5 mm
8,"OC[C@@H]1[C@@H](O)[C@H](O)[C@@H](O)CN1CCCCCc1ccccc1 [Compound No. 18, N-5-(Phenylpentyl)moranoline tosylate]",6.8 mm
9,"OC[C@@H]1[C@@H](O)[C@H](O)[C@@H](O)CN1CCC1CCCC1 [Compound No. 19, N-(2-Cyclopentylethyl)moranoline tosylate]",5.8 mm
10,"COCCOc1cccc(C(C)=CCN2C[C@H](O)[C@@H](O)[C@H](O)[C@H]2CO)c1 [Compound No. 20, N-[3-(3-Methoxyethoxyphenyl)-2-butenyl]moranoline]",8.0 mm
11,"C[N+]1(C)C[C@H](O)[C@@H](O)[C@H](O)[C@H]1CO [Compound No. 21, N,N-Dimethylmoranoline ammonium iodide]",5.6 mm
12,"CCN1C[C@H](O)[C@@H](O)[C@H](O)[C@H]1CO [Compound No. 22, N-Ethylmoranoline]",6.5 mm
13,"OCC1C(O)C(O)C(O)CN1CC=Cc1ccccc1 (stereo not shown) [Compound No. 23, N-Cinnamylmoranoline]",8.4 mm
14,"CC(C)=CCC/C(C)=C/CN1C[C@H](O)[C@@H](O)[C@H](O)[C@H]1CO [Compound No. 24, N-Geranylmoranoline tosylate]",7.6 mm
15,"OC[C@@H]1[C@@H](O)[C@H](O)[C@@H](O)CN1CC(O)COc1ccccc1 (stereo partly shown) [Compound No. 25, N-(2-Hydroxy-3-phenoxypropyl)moranoline tosylate]",4.1 mm
16,"CC(C)=CCCC(C)=CCCC(C)=CCN1CC(O)C(O)C(O)C1CO (stereo not shown) [Compound No. 26, N-Farnesylmoranoline tosylate]",5.7 mm
17,"CNC(=O)CCCCCCCCCCN1C[C@H](O)[C@@H](O)[C@H](O)[C@H]1CO [Compound No. 27, N-10-(N-Methylcarbamoyl)decylmoranoline]",8.5 mm
18,"OC[C@@H]1[C@@H](O)[C@H](O)[C@@H](O)CN1CCC=Cc1ccccc1 [Compound No. 28, N-(4-Phenyl-3-butenyl)moranoline tosylate]",8.3 mm
19,"CC(=Cc1ccccc1)CN1C[C@H](O)[C@@H](O)[C@H](O)[C@H]1CO [Compound No. 29, N-(3-Phenyl-2-methyl-2-propenyl)moranoline]",7.1 mm
20,"OC[C@@H]1[C@@H](O)[C@H](O)[C@@H](O)CN1CCCOc1ccccc1Cl [Compound No. 30, N-(3-o-Chlorophenoxypropyl)moranoline]",7.6 mm
21,"CC(=CCN1C[C@H](O)[C@@H](O)[C@H](O)[C@H]1CO)c1ccc(Br)cc1 [Compound No. 31, N-(γ-Methyl-4-bromocinnamyl)moranoline]",7.9 mm
22,"Cc1ccc(CCCCN2C[C@H](O)[C@@H](O)[C@H](O)[C@H]2CO)cc1F [Compound No. 32, N-[4-(3-Fluoro-4-methylphenyl)butyl]moranoline]",7.5 mm
23,"CCOc1ccc(C=CCN2CC(O)C(O)C(O)C2CO)cc1 (stereo not shown) [Compound No. 33, N-(p-Ethoxycinnamyl)moranoline]",7.8 mm
24,"CC(C)Oc1ccc(C=CCN2CC(O)C(O)C(O)C2CO)cc1 (stereo not shown) [Compound No. 34, N-(p-Isopropoxycinnamyl)moranoline]",7.6 mm
25,"CC(=CCN1C[C@H](O)[C@@H](O)[C@H](O)[C@H]1CO)c1cccc(C)c1 [Compound No. 35, N-(γ-Methyl-m-methylcimnnamyl)moranoline]",7.8 mm
26,"COc1cccc(C(C)=CCCN2C[C@H](O)[C@@H](O)[C@H](O)[C@H]2CO)c1 [Compound No. 36, N-(4-m-Methoxyphenyl-3-pentenyl)moranoline]",7.6 mm
27,"CCOC(=O)c1ccc(OCCN2C[C@H](O)[C@@H](O)[C@H](O)[C@H]2CO)cc1 [Compound No. 37, N-(p-Ethoxycarbonylphenoxyethyl)moranoline]",6.9 mm
28,"O[C@H]1[C@H](O)[C@@H](O)CN2CC[C@H](O)[C@H]12 [Compound No. 38, Castanospermine]",6.9 mm
29,N-Isoprenylmoranoline [Compound No. 9],8.2 mm

# Tested on: not listed separately
# Experiment: Test on acute toxicity
# Details: mouse, in vivo, ip
# Experimental: Four (4) ddY strain male mice of 6 week age were used for each group of the test sample.
# In intravenous administration, each sample was dissolved in 0.9% physiological saline and the solution was administered through the tail vein. In intraperitoneal administration, each sample was suspended in 0.5% CMC-physiological saline and 0.1 ml of the suspension per […] of mouse body weight was intraperitoneally administered. In oral administration, each sample was suspended in 0.5% CMC-physiological saline and 0.2 ml of the suspension per […] administered.
# Observation was made immediately after the administration. After observation for 1 week after the administration, the mice was sacrificed with chloroform and subjected to autopsy.
row,Compound,LD50 at 168 h
1,"OC[C@H]1NC[C@H](O)[C@@H](O)[C@@H]1O [Compound No. 1, Moranoline]",5000 mg/kg

# Same assay, conditions: mouse, in vivo, iv
row,Compound,LD50 at 168 h
1,"OC[C@H]1NC[C@H](O)[C@@H](O)[C@@H]1O [Compound No. 1, Moranoline]",3240 mg/kg

# Same assay, conditions: mouse, in vivo, po
row,Compound,LD50 at 168 h
1,"OC[C@H]1NC[C@H](O)[C@@H](O)[C@@H]1O [Compound No. 1, Moranoline]",7500 mg/kg
